Data from patent publication US20240122905A1, “PHARMACEUTICAL COMPOSITION” (MedinCell S.A., priority 2020, published 2024).

Assay: PK1: absolute/subcutaneous bioavailability study of Tacrolimus solution (IV and SC)
Assay type: in vivo, female Göttingen minipig
Settings: for AUClast/D1 / AUC∞/D1 / Cmax/D1: dose-normalized by actual dose per kg
Experimental: PK1: A 2-Month Pharmacokinetic Study of Different Sustained-Release Formulations of Tacrolimus after Subcutaneous Administration and Subcutaneous Bioavailability Study of Tacrolimus in Female Göttingen Minipig
Evaluation of the Absolute Bioavailability of Tacrolimus
The dose volume for each animal was 12.5 mL corresponding to a unique dose of 2.5 mg/animal. Solution was administered: • intravenously into the ear vein using 20 mL polypropylene syringe and 23 G butterfly needle. • subcutaneously in a skin fold caudal to the axillar region/shoulder using 20 mL polypropylene syringe and 21 G needle.
Blood samples were collected into EDTA tubes at predose and at different time points: • Intravenous dosing: 5 min (0.083 h), 15 min (0.25 h), 30 min (0.5 h), and 1, 2, 6, 24, 48, 72 and 96 h after end of dosing. • Subcutaneous dosing: 30 min (0.5 h), and 1, 2, 4, 6, 10, 24, 48, 72 and 96 h after end of dosing.
Whole blood samples were analyzed to determine the concentration of the test item using a qualified analytical procedure. 2-Month Pharmacokinetic Study of Sustain-Release Formulations

[1] = Tacrolimus solution 2.5 mg/animal IV
[2] = Tacrolimus solution 2.5 mg/animal SC
[3] = female, Göttingen, minipig, Tacrolimus solution 2.5 mg/animal IV, whole blood
[4] = female, Göttingen, minipig, Tacrolimus solution 2.5 mg/animal SC, whole blood

For `C=CC[C@@H]1/C=C(\C)C[C@H](C)C[C@H](OC)[C@H]2O[C@@](O)(C(=O)C(=O)N3CCCC[C@H]3C(=O)OC(/C(C)=C/[C@@H]3CC[C@@H](O)[C@H](OC)C3)[C@H](C)[C@@H](O)CC1=O)[C@H](C)C[C@@H]2OC` (stereo partly shown) [Tacrolimus], the AUClast/D1 [1] was 17900 ± 1620 kg·ng·h/mL/mg, the “AUC∞/D1” value [1] was 19700 ± 1750 kg·ng·h/mL/mg and the Clast (Tacrolimus solution 2.5 mg/animal IV, whole blood) was 4.22 ± 2.08 ng/mL. The tlast (Tacrolimus solution 2.5 mg/animal IV, whole blood, median (range)) was 95.7 (95.7-96.1)^$ h, the AUClast/D1 [2] was 17100 ± 1090 kg·ng·h/mL/mg and the “AUC∞/D1” value [2] was 18100 ± 1150 kg·ng·h/mL/mg. The Cmax/D1 [2] was 779 ± 30.8 kg·ng/mL/mg, the Cmax/D1 (Tacrolimus solution 2.5 mg/animal SC, listed as immediate release compound) was 779 kg·ng/mL/mg and the Clast (Tacrolimus solution 2.5 mg/animal SC, whole blood) was 2.89 ± 0.759 ng/mL. It also gave a tlast (Tacrolimus solution 2.5 mg/animal SC, whole blood, median) of 96 h, a bioavailability (female, Göttingen, minipig, whole blood, subcutaneous, Tacrolimus solution 2.5 mg/animal SC vs IV) of 92.4% and an AUC(0-inf) [3] of 2040 ± 258 ng·h/mL. For the same molecule, the AUC(0-t) [3] was 1850 ± 224 ng·h/mL, the half-life [3] was 31.5 ± 1.62 h and the AUC(0-inf) [4] was 1870 ± 189 ng·h/mL. The AUC(0-t) [4] was 1760 ± 169 ng·h/mL, the Cmax [4] was 80.2 ± 2.63 ng/mL and the half-life [4] was 25.7 ± 2.25 h. For the same molecule, the Tmax (female, Göttingen, minipig, Tacrolimus solution 2.5 mg/animal SC, whole blood, median) was 4 h.
